Data on 3 compounds can be found in patent US10898419B2, “Compounds for promoting hair growth and/or inhibiting or delaying hair loss in humans, and compositions for such uses” (GIULIANI S.P.A., priority 2016, dated 2021).

The target in assay [1] is T1, olfactory receptor OR2AT4 (Homo sapiens, UniProt A6NND4).
T1 sequence (A6NND4 1-320): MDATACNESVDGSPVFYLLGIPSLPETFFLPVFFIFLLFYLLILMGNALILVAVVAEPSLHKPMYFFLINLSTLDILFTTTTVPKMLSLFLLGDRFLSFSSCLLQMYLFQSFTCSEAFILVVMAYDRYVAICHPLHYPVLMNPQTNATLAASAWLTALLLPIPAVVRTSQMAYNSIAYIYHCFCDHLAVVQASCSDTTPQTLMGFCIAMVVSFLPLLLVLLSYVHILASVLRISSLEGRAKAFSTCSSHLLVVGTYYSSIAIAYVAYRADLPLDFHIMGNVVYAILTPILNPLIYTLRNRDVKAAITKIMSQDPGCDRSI
The note with it: according to Busse et al.; cited from earlier work.

The test system of assay [2] is cultured human keratinocytes. Conditions: Busse et al.; cited from earlier work.
Assay [3] concerns microdissected human scalp HFs. The assay is described as follows: Hair cycle score / staging (catagen induction) in HF organ culture. Type of assay: cell-based. Conditions: 500 μM (Phenirat 1:1), 6 days of culture, compared to vehicle. The protocol:
(§1) HFs were treated with either the vehicle, sandal pentanol, Phenirat or a mixture of sandal pentanol and Phenirat. To analyse modifications of the hair cycle, Ki67/TUNEL were performed and used to evaluate hair cycle score and hair matrix keratinocytes proliferation and apoptosis.
Human scalp samples were obtained after face-lifting procedure and used at the same day for microdissecting human anagen VI scalp HFs. Microdissected human scalp HFs were cultured at 37° C. with 5% CO2 in a minimal media of William's E media (Gibco, Life technologies) supplemented with 2 mM of L-glutamine (Gibco), 10 ng/ml hydrocortisone (Sigma-Aldrich), 10 μg/ml insulin (Sigma-Aldrich) and 1% penicillin/streptomycin mix (Gibco) (WEM) as previously described (Philpott, 1990; Kloepper, 2010; Langan et al, 2015). […]
(§2) Phenirat was added 30 min before sandal pentanol. Hair shaft elongation was measured daily using an inverted binocular microscope (Philpott et al., 1990) and culture medium was replaced every second day. […]
To investigate the specificity of the effect on hair growth of OR2AT4 stimulation by sandal pentanol, microdissected HFs were cultured with sandal pentanol and/or Phenirat, and hair cycle performed staging analysis as previously described (Kloepper, 2010; Langan et al, 2015). Hair cycle score was measured both in treated and vehicle HFs after 6 days of culture. […]

For assay [4], the system named is hair matrix keratinocytes. The assay is described as follows: Ki67/TUNEL staining of hair matrix keratinocytes in HF organ culture. The class given is cell-based, human. Conditions: 500 μM (Phenirat 1:1), 6 day-culture, compared to vehicle. As to the method: as §1
OCT embedded samples were sectioned (6 μm thickness) with a cryostat. Sections were fixed in 4% paraformaldehyde, pre-incubated with 10% of goat serum (for OR2AT4) or 5% goat serum+0.3% Tritton X-100 (for cleaved-caspase 3) and incubated with the corresponding primary antibody at 4° C. overnight ( 1/100 for OR2AT4 and 1/400 for cleaved-caspase 3). Secondary antibody incubation was performed at RT for 45 min. Counterstaining with DAPI (1 μg/mL) was performed to visualize nuclei. For TGFb2, samples were fixed in acetone and the endogenous peroxidases were blocked with 3% of H2O2. This step was followed by an avidin-biotin blocking step and a preincubation with TNB buffer (Tris HCl+NaCl+Casein). The corresponding primary antibody was incubated at 4° C. overnight ( 1/1000 for TGFb2). Secondary antibody incubation was performed at RT for 45 min before using the Tyramide signal amplification kit (Perkin Elmer). Counterstaining with DAPI was performed to visualize nuclei. To stain apoptotic and proliferating cells, we have used the apoptag kit (Merck Milipore) following manufacture's protocol followed by Ki67 staining. The primary antibody was incubated overnight (Ki67, 1/20) after the TdT-enzyme step. The secondary antibody was incubated for 45 min at RT after the fluorescent-labelled anti-Digoxigenin step of the apoptag kit. Counterstaining with DAPI was performed to visualize nuclei. Negative controls were performed by omitting the primary antibody. Images were taken using a Keyence fluorescence microscope (Osaka, Japan) maintaining a constant set exposure time throughout imaging for further analysis.
After 24 h of incubation, WEM medium was replaced and HFs were treated with the corresponding substances for 6 days following experimental conditions. HFs were treated either with vehicle (0.1% DMSO), sandal pentanol (500 μM), Phenirat (in a ratio 1:1 to the agonist), or a mixture sandal pentanol+Phenirat.
Staining intensity was evaluated in well-defined reference areas by quantitative (immuno-)histomorphometry, as previously described (Bertolini et al., 2014) using NIH IMAGE software (NIH, Bethesda, Md., USA).
With reference to the evidence of FIG. 4, to investigate whether sandal pentanol influences hair matrix keratinocytes proliferation and apoptosis, Ki67/TUNEL staining was performed. Proliferating (diagram of FIG. 4A) and apoptotic (diagram of FIG. 4B) hair matrix keratinocytes were counted in the hair matrix of treated and vehicle HFs. […]

Assay [5] has as its system TGFβ2. The assay is described as follows: TGFβ2 immunofluorescence in ORS keratinocytes of cultured HFs. Type of assay: cell-based, human. Conditions: 500 μM (Phenirat 1:1), 6 day-treatment, proximal ORS keratinocytes, compared to vehicle. The protocol: In addition, TGFβ2, a potent catagen inducer, was investigated with reference to the same above compounds.
OCT embedded samples were sectioned (6 μm thickness) with a cryostat. Sections were fixed in 4% paraformaldehyde, pre-incubated with 10% of goat serum (for OR2AT4) or 5% goat serum+0.3% Tritton X-100 (for cleaved-caspase 3) and incubated with the corresponding primary antibody at 4° C. overnight ( 1/100 for OR2AT4 and 1/400 for cleaved-caspase 3). Secondary antibody incubation was performed at RT for 45 min. Counterstaining with DAPI (1 μg/mL) was performed to visualize nuclei. For TGFb2, samples were fixed in acetone and the endogenous peroxidases were blocked with 3% of H2O2. This step was followed by an avidin-biotin blocking step and a preincubation with TNB buffer (Tris HCl+NaCl+Casein). […] Images were taken using a Keyence fluorescence microscope (Osaka, Japan) maintaining a constant set exposure time throughout imaging for further analysis. […]
Staining intensity was evaluated in well-defined reference areas by quantitative (immuno-)histomorphometry, as previously described (Bertolini et al., 2014) using NIH IMAGE software (NIH, Bethesda, Md., USA). […]
TGFβ2 expression was quantified using Image J. Mean±SEM, n=14-22 HFs from 2 patients, Kruskal-Wallis and Dunn's multiple comparisons test as post hoc test, *p<0.05, ***p<0.001, and Mann-Whitney test, ns. […]

The test system of assay [6] is microdissected human scalp HFs. The experiment in a line: Hair shaft elongation in HF organ culture. Type of assay: cell-based. Conditions: 500 μM, cultured microdissected HFs from two donors, compared to vehicle. The protocol: (§3) Then, in order to assess whether stimulation of OR2AT4 can influence human hair growth, microdissected HFs were treated with sandal pentanol at a concentration of 500 μM, as the agonist and a hair shaft elongation measurement was performed (see Philpott et al., 1990). In addition, a kinase assay was conducted in order to identify which signalling pathways are involved in the specific stimulation of OR2AT4 by sandal pentanol.
Human scalp samples were obtained after face-lifting procedure and used at the same day for microdissecting human anagen VI scalp HFs. […]
as §2
To check whether the activation of OR2AT4 can influence the hair cycle of human HF, microdissected human HFs were specifically stimulated with the potential agonist, sandal pentanol. The effect of the sandal pentanol treatment was evaluated by measuring hair shaft elongation compared to vehicle.
HF elongation was measured in cultured microdissected HFs. […]

For assay [7], the system named is apoptotic signalling pathway. The assay is described as follows: Kinase assay of signalling pathways after OR2AT4 stimulation. Type of assay: cell-based, human. The note with it: specific stimulation of OR2AT4 in microdissected HFs. The protocol: as §3
For assay [8], the system named is keratinocytes. Conditions: long-term stimulation, in vitro wound scratch assay, Busse et al.; cited from earlier work.
Assay [9] relates to human skin organ cultures. The note with it: Busse et al.; cited from earlier work.

For `CC1=CC[C@@H](CC[C@@H](C)CO)C1(C)C` (stereo in doubt) [brahmanol, 2-Methyl-4-(2,2,3-trimethyl-3-cyclopenten-1-yl)butanol], the “activity at olfactory receptor OR2AT4” value in assay [1] is “agonists”. For the same compound, the “Ca2+ signals” value in [2] is given as “induce Ca^2+ signals”.

Take `CC(C)C(=O)OCCOc1ccccc1` [Phenirat, phenoxyethyl isobutyrate, reference compound]: the “catagen induction / anagen prolongation (hair cycle score)” value in assay [3] is on record as “did not prolong anagen”. Further, in assay [4], the “hair matrix keratinocyte apoptosis (TUNEL)” value is on record as “this effect is not obtained” and the “hair matrix keratinocyte proliferation (Ki67)” value was “did not change”. In addition, the “TGFβ2 expression at the protein level” value in [5] was “no change”. For the same compound, the “activity at olfactory receptor OR2AT4” value in assay [1] is reported as “specific antagonist”.

For the compound `CC1=CCC(CCC(C)C(C)O)C1(C)C` (centres unmarked) [sandal pentanol, 3-methyl-5-(2,2,3-trimethylcyclopent-3-en-1-yl)pentan-2-ol], in assay [6], the hair shaft elongation result is reported as “stimulates hair shaft elongation”. In addition, the “catagen induction / anagen prolongation (hair cycle score)” value in assay [3] is on record as “delayed catagen induction”. In addition, in assay [4], the “hair matrix keratinocyte apoptosis (TUNEL)” value was “significantly decreased” and the “hair matrix keratinocyte proliferation (Ki67)” value is given as “did not change”. For the same compound, the “TGFβ2 expression at the protein level” value in [5] is listed as “significant decrease”. Besides, in assay [7], the “effect on apoptotic signalling pathway” value is listed as “Inhibits Apoptotic Signalling Pathway”. The “activity at olfactory receptor OR2AT4” value in assay [1] is recorded as “agonists”. Besides, the “Ca2+ signals” value in assay [2] is reported as “induce Ca^2+ signals”. Moreover, the “cell proliferation, migration and regeneration of keratinocyte monolayers” value in [8] is reported as “positively affects”. For the same compound, in assay [9], the epidermal wound healing result was “enhances epidermal wound healing”.
